According to ChEMBL document CHEMBL4308841, “Synthesis, in vitro antiproliferative activity, and kinase inhibitory effects of pyrazole-containing diarylureas and diarylamides” (Eur J Med Chem, 2018):

test system: MCF7; assay: Growth inhibition of human MCF7 cells assessed as cell growth at 0.1 uM incubated for 48 hrs by sulforhodamine B assay relative to control; type: functional; settings: MCF7, 48 h, read-out: Activity

`O=C(Nc1cccc(-n2cc(-c3ccncc3)c(-c3cc(O)cc(Cl)c3)n2)c1)c1ccc(N2CCOCC2)c(C(F)(F)F)c1` was tested. Which growth at 0.1 µM did it give?
The growth at 0.1 µM was 87%.

test system: OVCAR-4; assay: Growth inhibition of human OVCAR4 cells assessed as cell growth at 100 uM incubated for 48 hrs by sulforhodamine B assay relative to control; type: functional; settings: OVCAR-4, 48 h, read-out: Activity

`O=C(Nc1cccc(-n2cc(-c3ccncc3)c(-c3cc(O)cc(Cl)c3)n2)c1)c1ccc(N2CCOCC2)c(C(F)(F)F)c1` was tested. Which growth at 100 µM did it give?
Its growth at 100 µM is 57%.

test system: SW-620; assay: Growth inhibition of human SW620 cells incubated for 48 hrs by sulforhodamine B assay; type: functional, cell-based; settings: SW-620, 48 h, read-out: GI50

`O=C(Nc1cccc(-n2cc(-c3ccncc3)c(-c3cc(O)cc(Cl)c3)n2)c1)c1ccc(N2CCOCC2)c(C(F)(F)F)c1` was tested. Which GI50 did it give?
The GI50 was 2.53 µM.

same assay, conditions: SW-620, 48 h, read-out: LC50

Which LC50 does the source give for `O=C(Nc1cccc(-n2cc(-c3ccncc3)c(-c3cc(O)cc(Cl)c3)n2)c1)c1ccc(N2CCOCC2)c(C(F)(F)F)c1` here?
The LC50 was > 100 µM.

same assay, conditions: SW-620, 48 h, read-out: TGI

`O=C(Nc1cccc(-n2cc(-c3ccncc3)c(-c3cc(O)cc(Cl)c3)n2)c1)c1ccc(N2CCOCC2)c(C(F)(F)F)c1` was tested. Which TGI did it give?
Its TGI is 70.6 µM.

same assay, conditions: SW-620, 48 h, read-out: pGI50 (converted)

Which GI50 does the source give for `O=C(Nc1cccc(-n2cc(-c3ccncc3)c(-c3cc(O)cc(Cl)c3)n2)c1)c1ccc(N2CCOCC2)c(C(F)(F)F)c1` here?
The GI50 was 2.82 µM.

same assay, conditions: SW-620, 48 h, read-out: pLC50 (converted)

Which LC50 does the source give for `O=C(Nc1cccc(-n2cc(-c3ccncc3)c(-c3cc(O)cc(Cl)c3)n2)c1)c1ccc(N2CCOCC2)c(C(F)(F)F)c1` here?
Its LC50 is > 100 µM.

same assay, conditions: SW-620, 48 h, read-out: pTGI (converted)

With `O=C(Nc1cccc(-n2cc(-c3ccncc3)c(-c3cc(O)cc(Cl)c3)n2)c1)c1ccc(N2CCOCC2)c(C(F)(F)F)c1` as the molecule, how does the TGI read?
The TGI was 7.08 µM.

test system: NCI-H522; assay: Growth inhibition of human NCI-H522 cells assessed as cell growth at 1 uM incubated for 48 hrs by sulforhodamine B assay relative to control; type: functional; settings: NCI-H522, 48 h, read-out: Activity

For `O=C(Nc1cccc(-n2cc(-c3ccncc3)c(-c3cc(O)cc(Cl)c3)n2)c1)c1ccc(N2CCOCC2)c(C(F)(F)F)c1`, which growth at 1 µM is on record?
The growth at 1 µM was 40%.

test system: A549; assay: Growth inhibition of human A549/ATCC cells assessed as cell growth at 0.1 uM incubated for 48 hrs by sulforhodamine B assay relative to control; type: functional; settings: A549, 48 h, read-out: Activity

With `O=C(Nc1cccc(-n2cc(-c3ccncc3)c(-c3cc(O)cc(Cl)c3)n2)c1)c1ccc(N2CCOCC2)c(C(F)(F)F)c1` as the molecule, how does the growth at 0.1 µM read?
The growth at 0.1 µM was 97%.

test system: NCI-H322M; assay: Growth inhibition of human NCI-H322M cells incubated for 48 hrs by sulforhodamine B assay; type: functional, cell-based; settings: read-out: GI50

How did the GI50 turn out when `O=C(Nc1cccc(-n2cc(-c3ccncc3)c(-c3cc(O)cc(Cl)c3)n2)c1)c1ccc(N2CCOCC2)c(C(F)(F)F)c1` was run?
The GI50 was 2.53 µM.

same assay, conditions: read-out: LC50 (the source's name)

`O=C(Nc1cccc(-n2cc(-c3ccncc3)c(-c3cc(O)cc(Cl)c3)n2)c1)c1ccc(N2CCOCC2)c(C(F)(F)F)c1` was tested. Which CC50 did it give?
The CC50 was > 100 µM.

same assay, conditions: read-out: TGI

Which TGI does the source give for `O=C(Nc1cccc(-n2cc(-c3ccncc3)c(-c3cc(O)cc(Cl)c3)n2)c1)c1ccc(N2CCOCC2)c(C(F)(F)F)c1` here?
The TGI was > 100 µM.

same assay, conditions: read-out: pGI50 (converted)

With `O=C(Nc1cccc(-n2cc(-c3ccncc3)c(-c3cc(O)cc(Cl)c3)n2)c1)c1ccc(N2CCOCC2)c(C(F)(F)F)c1` as the molecule, how does the GI50 read?
The GI50 was 2.82 µM.

same assay, conditions: read-out: pLC50 (the source's name) (converted)

With `O=C(Nc1cccc(-n2cc(-c3ccncc3)c(-c3cc(O)cc(Cl)c3)n2)c1)c1ccc(N2CCOCC2)c(C(F)(F)F)c1` as the molecule, how does the CC50 read?
The CC50 was > 100 µM.

same assay, conditions: read-out: pTGI (converted)

How did the TGI turn out when `O=C(Nc1cccc(-n2cc(-c3ccncc3)c(-c3cc(O)cc(Cl)c3)n2)c1)c1ccc(N2CCOCC2)c(C(F)(F)F)c1` was run?
The TGI was > 100 µM.

test system: CAKI-1; assay: Growth inhibition of human Caki1 cells assessed as cell growth at 100 uM incubated for 48 hrs by sulforhodamine B assay relative to control; type: functional; settings: CAKI-1, 48 h, read-out: Activity

With `O=C(Nc1cccc(-n2cc(-c3ccncc3)c(-c3cc(O)cc(Cl)c3)n2)c1)c1ccc(N2CCOCC2)c(C(F)(F)F)c1` as the molecule, how does the growth at 100 µM read?
Its growth at 100 µM is -32%.

test system: UO-31; assay: Growth inhibition of human UO31 cells assessed as cell growth at 0.01 uM incubated for 48 hrs by sulforhodamine B assay relative to control; type: functional; settings: UO-31, 48 h, read-out: Activity

For `O=C(Nc1cccc(-n2cc(-c3ccncc3)c(-c3cc(O)cc(Cl)c3)n2)c1)c1ccc(N2CCOCC2)c(C(F)(F)F)c1`, which growth at 0.01 µM is on record?
Its growth at 0.01 µM is 85%.

test system: T47D; assay: Growth inhibition of human T47D cells assessed as cell growth at 100 uM incubated for 48 hrs by sulforhodamine B assay relative to control; type: functional; settings: read-out: Activity

With `O=C(Nc1cccc(-n2cc(-c3ccncc3)c(-c3cc(O)cc(Cl)c3)n2)c1)c1ccc(N2CCOCC2)c(C(F)(F)F)c1` as the molecule, how does the growth at 100 µM read?
Its growth at 100 µM is 7%.

test system: Malme-3M; assay: Growth inhibition of human MALME-3M cells incubated for 48 hrs by sulforhodamine B assay; type: functional, cell-based; settings: read-out: GI50

Which GI50 does the source give for `O=C(Nc1cccc(-n2cc(-c3ccncc3)c(-c3cc(O)cc(Cl)c3)n2)c1)c1ccc(N2CCOCC2)c(C(F)(F)F)c1` here?
The GI50 was 1.38 µM.

same assay, conditions: read-out: LC50 (the source's name)

How did the CC50 turn out when `O=C(Nc1cccc(-n2cc(-c3ccncc3)c(-c3cc(O)cc(Cl)c3)n2)c1)c1ccc(N2CCOCC2)c(C(F)(F)F)c1` was run?
The CC50 was > 100 µM.

same assay, conditions: read-out: TGI

Which TGI does the source give for `O=C(Nc1cccc(-n2cc(-c3ccncc3)c(-c3cc(O)cc(Cl)c3)n2)c1)c1ccc(N2CCOCC2)c(C(F)(F)F)c1` here?
The TGI was 51.9 µM.

same assay, conditions: read-out: pGI50 (converted)

`O=C(Nc1cccc(-n2cc(-c3ccncc3)c(-c3cc(O)cc(Cl)c3)n2)c1)c1ccc(N2CCOCC2)c(C(F)(F)F)c1` was tested. Which GI50 did it give?
The GI50 was 1.38 µM.

same assay, conditions: read-out: pLC50 (the source's name) (converted)

How did the CC50 turn out when `O=C(Nc1cccc(-n2cc(-c3ccncc3)c(-c3cc(O)cc(Cl)c3)n2)c1)c1ccc(N2CCOCC2)c(C(F)(F)F)c1` was run?
Its CC50 is > 100 µM.

same assay, conditions: read-out: pTGI (converted)

How did the TGI turn out when `O=C(Nc1cccc(-n2cc(-c3ccncc3)c(-c3cc(O)cc(Cl)c3)n2)c1)c1ccc(N2CCOCC2)c(C(F)(F)F)c1` was run?
The TGI was 5.25 µM.

test system: Hs-578T; assay: Growth inhibition of human Hs578T cells assessed as cell growth at 0.1 uM incubated for 48 hrs by sulforhodamine B assay relative to control; type: functional; settings: read-out: Activity

For `O=C(Nc1cccc(-n2cc(-c3ccncc3)c(-c3cc(O)cc(Cl)c3)n2)c1)c1ccc(N2CCOCC2)c(C(F)(F)F)c1`, which growth at 0.1 µM is on record?
Its growth at 0.1 µM is 90%.

test system: NCI/ADR-RES; assay: Growth inhibition of human NCI/ADR-RES cells assessed as cell growth at 0.1 uM incubated for 48 hrs by sulforhodamine B assay relative to control; type: functional; settings: read-out: Activity

With `O=C(Nc1cccc(-n2cc(-c3ccncc3)c(-c3cc(O)cc(Cl)c3)n2)c1)c1ccc(N2CCOCC2)c(C(F)(F)F)c1` as the molecule, how does the growth at 0.1 µM read?
Its growth at 0.1 µM is 103%.

test system: CAKI-1; assay: Growth inhibition of human Caki1 cells assessed as cell growth at 0.01 uM incubated for 48 hrs by sulforhodamine B assay relative to control; type: functional; settings: CAKI-1, 48 h, read-out: Activity

For `O=C(Nc1cccc(-n2cc(-c3ccncc3)c(-c3cc(O)cc(Cl)c3)n2)c1)c1ccc(N2CCOCC2)c(C(F)(F)F)c1`, which growth at 0.01 µM is on record?
The growth at 0.01 µM was 98%.

test system: MCF7; assay: Growth inhibition of human MCF7 cells assessed as cell growth at 0.01 uM incubated for 48 hrs by sulforhodamine B assay relative to control; type: functional; settings: MCF7, 48 h, read-out: Activity

Which growth at 0.01 µM does the source give for `O=C(Nc1cccc(-n2cc(-c3ccncc3)c(-c3cc(O)cc(Cl)c3)n2)c1)c1ccc(N2CCOCC2)c(C(F)(F)F)c1` here?
The growth at 0.01 µM was 91%.

test system: 786-0; assay: Growth inhibition of human 786-0 cells assessed as cell growth at 0.1 uM incubated for 48 hrs by sulforhodamine B assay relative to control; type: functional; settings: 786-0, 48 h, read-out: Activity

Which growth at 0.1 µM does the source give for `O=C(Nc1cccc(-n2cc(-c3ccncc3)c(-c3cc(O)cc(Cl)c3)n2)c1)c1ccc(N2CCOCC2)c(C(F)(F)F)c1` here?
The growth at 0.1 µM was 94%.
